Measurements published in article PMC5125695, “Antiviral Efficacy of Verdinexor In Vivo in Two Animal Models of Influenza A Virus Infection” (PLoS ONE, 2016).
“Also recorded” adds a separate entry of the source.

Tested on: Influenza A/WSN/33
Assay type: cell-based

## O=C(/C=C\n1cnc(-c2cc(C(F)(F)F)cc(C(F)(F)F)c2)n1)NNc1ccccn1 [verdinexor]
  Sensitivity of passaged virus to verdinexor: did not result in a reduction of drug sensitivity; also recorded: remained sensitive
